# Columns and labels:
# [1] = tested on: RPMI-8226 (Plasma Cell Myeloma); experiment: combination Emax (second highest fraction inhibited in the dose matrix, 72 h); higher = more inhibition; extreme values may be limits of the assay
# Outline: (§1)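 After 24 hours at 37°C and 5% CO2 in 1536-well plates, cells in DMEM/F12 or RPMI plus 10% FBS received two-drug dose matrices for 72 hours. Viability came from CellTiter-Glo 2.0 luminescence and was scaled as inhibition, anchored at 0 by vehicle wells and at 1 by blank wells. Combination Emax is taken as the second-highest inhibition in the matrix, and Bliss excess as the observed combination effect less EA + EB − EA·EB, with EA and EB the single-agent effects.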
# [2] = tested on: SUP-B15 (B-Lymphoblastic Leukemia); experiment: as above
# Outline: as §1
Compound,combination Emax [1],combination Emax [2]
"Cc1c2c(nn1C)CSCc1cc(n(C)n1)CSc1cc(c3ccccc3c1)OCCCc1c(C(=O)O)n(C)c3c-2c(Cl)ccc13 [AZD5991] + Cn1cnc2c(F)c(Nc3ccc(Br)cc3Cl)c(C(=O)NOCCO)cc21 [Selumetinib] (first compound max 1 µM, 7x7, partner max 3 µM)",0.96,1
"C[C@@H]1COCCN1c1cc(C2([S@](C)(=N)=O)CC2)nc(-c2ccnc3[nH]ccc23)n1 [AZD6738] + O=C(c1cc(Cc2n[nH]c(=O)c3ccccc23)ccc1F)N1CCN(C(=O)C2CC2)CC1 [Olaparib] (first compound max 10 µM, 7x7, partner max 10 µM)",0.96,0.969
"Cc1cc2ncnn2cc1Nc1ncc2c(n1)n(C1CCOCC1)c(=O)n2C [AZD7648] + C=CCn1c(=O)c2cnc(Nc3ccc(N4CCN(C)CC4)cc3)nc2n1-c1cccc(C(C)(C)O)n1 [AZD1775] (first compound max 10 µM, partner max 1 µM)",0.348,0.553
"Cc1cc2ncnn2cc1Nc1ncc2c(n1)n(C1CCOCC1)c(=O)n2C [AZD7648] + CCN(CCO)CCCOc1ccc2c(Nc3cc(CC(=O)Nc4cccc(F)c4)[nH]n3)ncnc2c1 [AZD2811] (first compound max 10 µM, 7x7, partner max 1 µM)",0.392,0.875
"Cc1cc2ncnn2cc1Nc1ncc2c(n1)n(C1CCOCC1)c(=O)n2C [AZD7648] + CN(C)CCCOc1ccc(-c2ccc3ncc4c(c3c2)n(C2CCOCC2)c(=O)n4C)cn1 [AZD0156] (first compound max 10 µM, 7x7, partner max 1 µM)",0.248,0.174
"Cc1cc2ncnn2cc1Nc1ncc2c(n1)n(C1CCOCC1)c(=O)n2C [AZD7648] + C[C@@H]1COCCN1C2=NC(=NC(=C2)C3(CC3)[S@](=N)(=O)C)C4=C5C=CNC5=NC=C4 [AZD6738] (first compound max 10 µM, 7x7, partner max 10 µM)",0.855,0.848
"Cc1cc2ncnn2cc1Nc1ncc2c(n1)n(C1CCOCC1)c(=O)n2C [AZD7648] + O=C(c1cc(Cc2n[nH]c(=O)c3ccccc23)ccc1F)N1CCN(C(=O)C2CC2)CC1 [Olaparib] (first compound max 10 µM, 7x7, partner max 10 µM)",0.464,0.917
"COc1cccc2c1C(=O)c1c(O)c3c(c(O)c1C2=O)C[C@@](O)(C(=O)CO)C[C@@H]3O[C@H]1C[C@H](N)[C@H](O)[C@H](C)O1 [Doxorubicin] + Cc1cc2ncnn2cc1Nc1ncc2c(n1)n(C1CCOCC1)c(=O)n2C [AZD7648] (first compound max 1 µM, 7x7, partner max 10 µM)",0.976,0.987
"COc1cccc(OCCCN)c1-c1cc(Nc2cnc(C#N)cn2)n[nH]1 [Prexasertib] + C=CCn1c(=O)c2cnc(Nc3ccc(N4CCN(C)CC4)cc3)nc2n1-c1cccc(C(C)(C)O)n1 [AZD1775] (first compound max 1 µM, partner max 1 µM)",1,0.978
"COc1cccc(OCCCN)c1-c1cc(Nc2cnc(C#N)cn2)n[nH]1 [Prexasertib] + CCc1c2c(nc3ccc(O)cc13)-c1cc3c(c(=O)n1C2)COC(=O)[C@]3(O)CC [SN-38] (first compound max 1 µM, 7x7, partner max 0.3 µM)",1,1
"COc1cccc(OCCCN)c1-c1cc(Nc2cnc(C#N)cn2)n[nH]1 [Prexasertib] + CN(C)CCCOc1ccc(-c2ccc3ncc4c(c3c2)n(C2CCOCC2)c(=O)n4C)cn1 [AZD0156] (first compound max 1 µM, 7x7, partner max 1 µM)",1,0.959
"COc1cccc(OCCCN)c1-c1cc(Nc2cnc(C#N)cn2)n[nH]1 [Prexasertib] + C[C@@H]1COCCN1C2=NC(=NC(=C2)C3(CC3)[S@](=N)(=O)C)C4=C5C=CNC5=NC=C4 [AZD6738] (first compound max 1 µM, 7x7, partner max 10 µM)",1,0.962
"COc1cccc(OCCCN)c1-c1cc(Nc2cnc(C#N)cn2)n[nH]1 [Prexasertib] + Cc1cc2ncnn2cc1Nc1ncc2c(n1)n(C1CCOCC1)c(=O)n2C [AZD7648] (first compound max 1 µM, 7x7, partner max 10 µM)",0.995,0.966
"COc1cccc(OCCCN)c1-c1cc(Nc2cnc(C#N)cn2)n[nH]1 [Prexasertib] + O=C(c1cc(Cc2n[nH]c(=O)c3ccccc23)ccc1F)N1CCN(C(=O)C2CC2)CC1 [Olaparib] (first compound max 1 µM, 7x7, partner max 10 µM)",0.999,0.98
"COc1cc2c(cc1OCCCCCOc1cc3c(cc1OC)C(=O)N1C=C(C)C[C@H]1C=N3)N=C[C@@H]1CC(C)=CN1C2=O [SG3199] + O=C(c1cc(Cc2n[nH]c(=O)c3ccccc23)ccc1F)N1CCN(C(=O)C2CC2)CC1 [Olaparib] (first compound max 0.001 µM, 7x7, partner max 10 µM)",0.165,0.921
"CCc1c2c(nc3ccc(O)cc13)-c1cc3c(c(=O)n1C2)COC(=O)[C@]3(O)CC [SN-38] + CN(C)CCCOc1ccc(-c2ccc3ncc4c(c3c2)n(C2CCOCC2)c(=O)n4C)cn1 [AZD0156] (first compound max 0.3 µM, 7x7, partner max 1 µM)",0.77,1
"CC(=O)Nc1cccc(-n2c(=O)n(C3CC3)c(=O)c3c(Nc4ccc(I)cc4F)n(C)c(=O)c(C)c32)c1 [Trametinib] + Cc1nc(-c2cn3c(n2)-c2ccc(-c4cnn(C(C)(C)C(N)=O)c4)cc2OCC3)n(C(C)C)n1 [Taselisib] (first compound max 1 µM, 7x7, partner max 10 µM)",0.755,1
"CC1(C)CCC(CN2CCN(c3ccc(C(=O)NS(=O)(=O)c4ccc(NCC5CCOCC5)c([N+](=O)[O-])c4)c(Oc4cnc5[nH]ccc5c4)c3)CC2)=C(c2ccc(Cl)cc2)C1 [Venetoclax] + C1CN(CCC1(C(=O)N[C@@H](CCO)C2=CC=C(C=C2)Cl)N)C3=NC=NC4=C3C=CN4 [Capivasertib] (first compound max 1 µM, 7x7, partner max 3 µM)",0.172,1
"CC1(C)CCC(CN2CCN(c3ccc(C(=O)NS(=O)(=O)c4ccc(NCC5CCOCC5)c([N+](=O)[O-])c4)c(Oc4cnc5[nH]ccc5c4)c3)CC2)=C(c2ccc(Cl)cc2)C1 [Venetoclax] + C=CCn1c(=O)c2cnc(Nc3ccc(N4CCN(C)CC4)cc3)nc2n1-c1cccc(C(C)(C)O)n1 [AZD1775] (first compound max 1 µM, partner max 1 µM)",0.538,1
"CC1(C)CCC(CN2CCN(c3ccc(C(=O)NS(=O)(=O)c4ccc(NCC5CCOCC5)c([N+](=O)[O-])c4)c(Oc4cnc5[nH]ccc5c4)c3)CC2)=C(c2ccc(Cl)cc2)C1 [Venetoclax] + CCN(CCO)CCCOc1ccc2c(Nc3cc(CC(=O)Nc4cccc(F)c4)[nH]n3)ncnc2c1 [AZD2811] (first compound max 1 µM, 7x7, partner max 1 µM)",0.481,1
"CC1(C)CCC(CN2CCN(c3ccc(C(=O)NS(=O)(=O)c4ccc(NCC5CCOCC5)c([N+](=O)[O-])c4)c(Oc4cnc5[nH]ccc5c4)c3)CC2)=C(c2ccc(Cl)cc2)C1 [Venetoclax] + CN(C)CCCOc1ccc(-c2ccc3ncc4c(c3c2)n(C2CCOCC2)c(=O)n4C)cn1 [AZD0156] (first compound max 1 µM, 7x7, partner max 1 µM)",0.43,1
"CC1(C)CCC(CN2CCN(c3ccc(C(=O)NS(=O)(=O)c4ccc(NCC5CCOCC5)c([N+](=O)[O-])c4)c(Oc4cnc5[nH]ccc5c4)c3)CC2)=C(c2ccc(Cl)cc2)C1 [Venetoclax] + COc1cc(Nc2ncc3c(n2)-c2ccc(Cl)cc2C(c2c(F)cccc2OC)=NC3)ccc1C(=O)O [Alisertib] (first compound max 1 µM, 7x7, partner max 10 µM)",0.685,1
"CC1(C)CCC(CN2CCN(c3ccc(C(=O)NS(=O)(=O)c4ccc(NCC5CCOCC5)c([N+](=O)[O-])c4)c(Oc4cnc5[nH]ccc5c4)c3)CC2)=C(c2ccc(Cl)cc2)C1 [Venetoclax] + C[C@@H]1COCCN1C2=NC(=NC(=C2)C3(CC3)[S@](=N)(=O)C)C4=C5C=CNC5=NC=C4 [AZD6738] (first compound max 1 µM, 7x7, partner max 10 µM)",0.962,1
"CC1(C)CCC(CN2CCN(c3ccc(C(=O)NS(=O)(=O)c4ccc(NCC5CCOCC5)c([N+](=O)[O-])c4)c(Oc4cnc5[nH]ccc5c4)c3)CC2)=C(c2ccc(Cl)cc2)C1 [Venetoclax] + C[C@@H](Nc1cc(F)cc(F)c1)c1cc(C(=O)N(C)C)cc2c(=O)cc(N3CCOCC3)oc12 [AZD8186] (first compound max 1 µM, 7x7, partner max 3 µM)",0.194,1
"CC1(C)CCC(CN2CCN(c3ccc(C(=O)NS(=O)(=O)c4ccc(NCC5CCOCC5)c([N+](=O)[O-])c4)c(Oc4cnc5[nH]ccc5c4)c3)CC2)=C(c2ccc(Cl)cc2)C1 [Venetoclax] + Cc1cc2ncnn2cc1Nc1ncc2c(n1)n(C1CCOCC1)c(=O)n2C [AZD7648] (first compound max 1 µM, 7x7, partner max 10 µM)",0.438,1
"CC1(C)CCC(CN2CCN(c3ccc(C(=O)NS(=O)(=O)c4ccc(NCC5CCOCC5)c([N+](=O)[O-])c4)c(Oc4cnc5[nH]ccc5c4)c3)CC2)=C(c2ccc(Cl)cc2)C1 [Venetoclax] + Cn1cnc2c(F)c(Nc3ccc(Br)cc3Cl)c(C(=O)NOCCO)cc21 [Selumetinib] (first compound max 1 µM, 7x7, partner max 3 µM)",0.325,1

# Source: the supplement of paper PMC11061612
